Measurements published in US20070219180A1, “Muscle Relaxtion Accelerator and Therapeutic Agent for Muscular Tissue Diseases Such as Muscle Relaxation Failure” (priority 2004, published 2007).

Experiments:
male Wistar rats = assay: Experiment 11: protective effect on diastolic dysfunction of the myocardium (compound given before norepinephrine); type: in vivo, rat
Protocol: This experiment was performed to examine the protective effect of the compound on left ventricular diastolic dysfunction, and the compound was administered 5 minutes before administration of the norepinephrine solution referred to in Experiment 1, in which a calcium solution and a norepinephrine solution were administered after calcium administration for 20 minutes.
In this experiment, the 1,4-benzothiazepine derivative or pharmaceutically acceptable salt thereof was used as the compound.
Eight-week old male Wistar rats weighing 310-320 g were used in the study. The rats were anesthetized with 1,000 mg/kg of urethane and 80 mg/kg of α-chloralose by subperitoneal injection under artificial respiration (SN-480-7, Shinano) using endotracheal intubation. In this experiment, 100 mg of the compound was dissolved in 1 ml of dimethylsulfoxide (DMSO) and the resulting DMSO solution of the compound was stored at 4° C. Norepinephrine solution was prepared by dissolving 1 mg of norepinephrine in 41 μl of distilled water, at an infusion speed of […].
Firstly, continuous infusion catheters of calcium chloride solution or norepinephrine solution containing calcium chloride were inserted into the right external jugular veins of the rats, microchip catheters (SPC-320, Millar) was inserted into the left ventricles via the right common arteries, and the left ventricular end-diastolic pressure was measured. In addition, test drug infusion catheters were inserted into the right femoral veins.
A 1-lead electrocardiogram and the left ventricular pressure were recorded simultaneously on a personal computer via an A/D converter. The left ventricular diastolic pressure was determined as the mean of data measured over 20 heart beats every 5 minutes, when the pressure equivalent to the R wave of the electrocardiogram was defined as the left ventricular diastolic pressure. In the preparation step, blood pressure, pulse, and electrocardiogram of the rats were monitored for 15 minutes and allowed to stabilize, and then 5% dextrose solution containing calcium chloride (at a concentration based on the weight of the rat) was infused into the right external jugular vein for 20 minutes at 16.6 μl/min (12.0 mg/kg/min of calcium chloride).
Secondly, a norepinephrine solution containing calcium chloride without a change in dosage was immediately injected at a rate of 30 μg/kg/min via the right external jugular vein. After the start of administration, calcium chloride and norepinephrine were then continuously injected in the form of a norepinephrine solution containing calcium chloride. With continuous injection of calcium chloride and norepinephrine (in the form of a norepinephrine solution containing calcium chloride) via the right external jugular vein, 0.2 ml of 1% DMSO solution of the solvent used for the test compound was administered over 30 seconds to a rat (weight: 310 g, Control; this animal was not administered the compound) via the right femoral vein, 5 minutes before commencement of injection (intravenous injection) of calcium chloride and norepinephrine (in the form of a norepinephrine solution containing calcium chloride) via the right external jugular vein.
Similarly to the Control, with continuous injection of calcium chloride and norepinephrine (in the form of a norepinephrine solution containing calcium chloride) via the right external jugular vein, 0.2 ml of a 1% DMSO solution containing 0.3 mg/kg of the compound was administered over 30 seconds to a rat (weight: 320 g, defined as Test 14) via the right femoral vein, 5 minutes before commencement of injection (intravenous injection) via the right external jugular vein of calcium chloride and norepinephrine. Furthermore, in this experiment, after the test drug was injected over 30 seconds, a 1:10 dilution of the injected test drug was additionally administered at 10 μl/min from commencement of test drug injection to 15 minutes after the start of administration. […]

white rabbits = assay: Experiment 8: inhibition of clofilium-induced torsades de pointes; type: in vivo, rabbit
Protocol: Inhibition of clofilium-induced torsades de pointes by the compound In this experiment, four white rabbits (weight: 2.8-3.2 kg) were used. Each rabbit was intravenously anesthetized with 5 mg/kg methohexital sodium. Injection catheters for the compound and test drug were inserted into the right external jugular veins of the rabbits, and microchip catheters (SPC-320, Millar) for blood pressure measurement were inserted via the right common arteries, under artificial respiration by endotracheal intubation.
The compound solution was prepared by dissolving 100 mg of the compound in 1 ml of dimethylsulfoxide (DMSO), and stored at 4° C.
A 2-lead electrocardiogram and blood pressure of each rabbit were recorded simultaneously on a personal computer via an A/D converter. In this experiment, a sequence of more than 6 polymorphic ventricular tachycardia configurations on the electrocardiogram was defined as torsades de pointes. The number of onsets of torsades de pointes was recorded by electrocardiogram for 30 minutes after administration of clofilium. Methoxamine (an α-stimulant) was used to rapidly induce torsades de pointes. The compound, methoxyamine and clofilium were administered in physiological saline. […]

In the case of `COc1ccc2c(c1)CN(C(=O)CCN1CCC(Cc3ccccc3)CC1)CCS2` [the compound, 4-[3-(4-benzylpiperidine-1-yl)propionyl]-7-methoxy-2,3,4,5-tetrahydro-1,4-benzothiazepine], the “left ventricular end-diastolic pressure” value (male Wistar rats; Test 14: 0.3 mg/kg i.v. over 30 s 5 min before norepinephrine, then 0.02 mg/kg/min, 25 minutes before (5 minutes before the start of CaCl2), baseline) is reported as 7.2 mmHg, the “left ventricular end-diastolic pressure” value (male Wistar rats; Test 14: 0.3 mg/kg i.v. over 30 s then 0.02 mg/kg/min, 5 minutes after the start of test drug (just before the start of norepinephrine)) is reported as 8.0 mmHg and the “left ventricular end-diastolic pressure” value (male Wistar rats; Test 14: 0.3 mg/kg i.v. over 30 s then 0.02 mg/kg/min, 10 minutes after the start of test drug (5 minutes after the start of norepinephrine 30 μg/kg/min)) is reported as 14.5 mmHg. For the same molecule, the “left ventricular end-diastolic pressure” value (male Wistar rats; Test 14: 0.3 mg/kg i.v. over 30 s then 0.02 mg/kg/min, 10 minutes before (10 minutes after the start of CaCl2), baseline) was 7.9 mmHg, the “left ventricular end-diastolic pressure” value (male Wistar rats; Test 14: 0.3 mg/kg i.v. over 30 s then 0.02 mg/kg/min, 15 minutes after the start of test drug (10 minutes after the start of norepinephrine 30 μg/kg/min)) was 18.3 mmHg and the “left ventricular end-diastolic pressure” value (male Wistar rats; Test 14: 0.3 mg/kg i.v. over 30 s then 0.02 mg/kg/min, 20 minutes before (just after the start of CaCl2), baseline) was 7.7 mmHg. For the same molecule, the “left ventricular end-diastolic pressure” value (male Wistar rats; Test 14: 0.3 mg/kg i.v. over 30 s then 0.02 mg/kg/min, just before test drug (20 minutes after the start of CaCl2), baseline) was 8.1 mmHg, the “Onset of torsades de pointes (electrocardiogram)” value (white rabbits; clofilium 50 μg/kg/min + the compound 0.2 mg/kg/min i.v., monitored 30 minutes) was “completely prevented” and the “Incidence of torsades de pointes” value (white rabbits; number of onsets in 30 minutes after start of clofilium 50 μg/kg/min under methoxamine 15 μg/kg/min, the compound 0.2 mg/kg/min i.v. for 30 min) was 0.
